From PubChem BioAssay AID493156 (Johns Hopkins Ion Channel Center, 2011) come the findings set out here.

The target in this assay is Voltage-gated inwardly rectifying potassium channel KCNH2 (Homo sapiens) (UniProt Q12809). Briefly: blockers of hERG current – automated electrophysiology, CHO cells, Ionworks Quattro, primary screen (AID 493156). Conditions: automated patch clamp current, stronger effect = lower value.
Voltage-gated inwardly rectifying potassium channel KCNH2 (Homo sapiens), sequence (Q12809 whole entry, looked up): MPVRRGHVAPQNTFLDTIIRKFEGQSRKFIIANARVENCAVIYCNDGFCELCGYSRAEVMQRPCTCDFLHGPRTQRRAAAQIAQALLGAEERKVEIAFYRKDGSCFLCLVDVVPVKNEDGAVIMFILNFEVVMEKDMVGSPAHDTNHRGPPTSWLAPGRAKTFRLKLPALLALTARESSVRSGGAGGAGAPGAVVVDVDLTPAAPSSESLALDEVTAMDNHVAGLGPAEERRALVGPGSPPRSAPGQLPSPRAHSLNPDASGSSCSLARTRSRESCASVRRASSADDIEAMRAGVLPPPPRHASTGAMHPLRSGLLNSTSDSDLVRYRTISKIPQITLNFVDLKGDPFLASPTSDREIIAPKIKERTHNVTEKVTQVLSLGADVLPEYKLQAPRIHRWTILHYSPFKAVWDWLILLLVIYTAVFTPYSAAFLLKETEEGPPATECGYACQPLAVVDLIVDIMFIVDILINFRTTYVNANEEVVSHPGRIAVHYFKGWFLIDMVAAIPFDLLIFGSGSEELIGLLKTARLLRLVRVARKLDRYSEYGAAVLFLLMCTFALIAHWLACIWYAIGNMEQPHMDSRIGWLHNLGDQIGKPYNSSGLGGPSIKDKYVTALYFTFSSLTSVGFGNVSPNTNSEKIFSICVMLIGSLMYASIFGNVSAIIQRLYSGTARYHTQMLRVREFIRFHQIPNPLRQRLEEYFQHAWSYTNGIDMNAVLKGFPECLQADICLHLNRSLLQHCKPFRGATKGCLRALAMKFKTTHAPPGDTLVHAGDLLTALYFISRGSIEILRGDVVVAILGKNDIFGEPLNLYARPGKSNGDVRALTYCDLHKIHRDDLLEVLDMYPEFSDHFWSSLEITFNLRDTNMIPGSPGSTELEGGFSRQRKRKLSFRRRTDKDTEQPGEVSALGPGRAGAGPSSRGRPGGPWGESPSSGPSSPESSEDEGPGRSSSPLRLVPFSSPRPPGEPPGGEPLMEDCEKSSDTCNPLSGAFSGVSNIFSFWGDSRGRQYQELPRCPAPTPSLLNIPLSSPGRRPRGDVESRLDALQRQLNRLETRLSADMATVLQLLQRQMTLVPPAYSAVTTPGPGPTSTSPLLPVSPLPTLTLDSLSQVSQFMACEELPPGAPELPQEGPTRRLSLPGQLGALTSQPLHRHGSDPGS

For the compound `O=C(c1cccc(-c2ccco2)c1)N1CCCC(N2CCN(c3ccc(F)cc3)CC2)C1` (stereo not drawn), the current change, negative = inhibition is -100% (at 10 µM) and -45.2% (current change, at 1 µM).

In the case of `Cc1cc(C)n(CCCN2CCC(C(=O)Nc3cccc(-c4cccc(F)c4)c3)CC2)n1`, the current change, negative = inhibition is, setting by setting: (at 10 µM) -100%; (current change, at 1 µM) -69.7%.

In the case of `CCc1ccc(CN2CCC(Oc3ccc(C(=O)N4CCCC4)cc3)CC2)cc1`, the current change, negative = inhibition (at 10 µM) is -100% and the current change, negative = inhibition (current change, at 1 µM) is -87.6%.

With `CCn1cc(CN2CCC(C(=O)Nc3cccc(-c4cccc(Cl)c4)c3)CC2)c(C)n1`, the current change, negative = inhibition reads like this: (at 10 µM) -100%; (current change, at 1 µM) -48.6%.

As to `Cc1occc1C(=O)N1CCN(c2ccc([N+](=O)[O-])cc2)CC1`, the current change, negative = inhibition (at 10 µM) was -100% and the current change, negative = inhibition (current change, at 1 µM) was -55.3%.

Turning to `Cc1ccc(-n2ncc3c2CCCC3NC(=O)c2ccoc2)cc1C` (stereo not drawn), the current change, negative = inhibition is -100% (at 10 µM) and -88.6% (current change, at 1 µM).

`CSc1cccc(CN2CCCC(CNC(=O)c3ccco3)C2)c1` (stereo not drawn): the current change, negative = inhibition by setting is: (at 10 µM) -100%; (current change, at 1 µM) -57.7%.

`Cc1ccccc1CN1CCN(C(=O)c2cc(-c3ccncc3)nc3ccccc23)CC1`: the current change, negative = inhibition (at 10 µM) was -100% and the current change, negative = inhibition (current change, at 1 µM) was -25.6%.

`Cc1ccccc1C(=O)Nc1ccnn1C1CCN(Cc2cccnc2)CC1`: the current change, negative = inhibition (at 10 µM) was -100% and the current change, negative = inhibition (current change, at 1 µM) is -58.5%.
